Where two headings read alike, the source gives them in different places.
Assays:
OATP2B1 = biological target: T1, OATP2B1 (Homo sapiens, UniProt O94956); experiment: OATP uptake assay, OATP2B1; assay type: cell-based; details: reference inhibitor; experiments not documented
T1 construct: expressed in transfected cells; host or cells: A431 epidermoid carcinoma cells
T1 sequence (O94956 1-709): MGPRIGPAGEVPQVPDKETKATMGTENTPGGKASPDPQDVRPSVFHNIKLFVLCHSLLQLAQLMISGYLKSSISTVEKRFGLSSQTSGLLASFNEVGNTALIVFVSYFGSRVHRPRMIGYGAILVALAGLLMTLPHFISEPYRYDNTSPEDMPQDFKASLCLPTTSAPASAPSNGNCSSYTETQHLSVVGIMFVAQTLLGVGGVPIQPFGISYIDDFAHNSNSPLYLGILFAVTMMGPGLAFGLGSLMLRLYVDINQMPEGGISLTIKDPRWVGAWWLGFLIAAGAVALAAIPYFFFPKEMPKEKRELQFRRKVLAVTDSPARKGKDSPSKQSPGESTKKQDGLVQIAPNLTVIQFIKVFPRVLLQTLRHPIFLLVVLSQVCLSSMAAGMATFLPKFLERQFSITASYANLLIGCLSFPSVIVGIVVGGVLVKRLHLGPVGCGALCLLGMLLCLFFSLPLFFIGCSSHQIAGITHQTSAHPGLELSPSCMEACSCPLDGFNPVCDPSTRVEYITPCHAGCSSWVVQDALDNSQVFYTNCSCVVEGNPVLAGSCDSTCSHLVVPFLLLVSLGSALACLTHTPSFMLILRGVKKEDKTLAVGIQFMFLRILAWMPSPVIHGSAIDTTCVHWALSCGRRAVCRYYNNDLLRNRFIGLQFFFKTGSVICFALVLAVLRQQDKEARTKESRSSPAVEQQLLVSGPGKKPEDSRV
Procedure: (§1) Cell lines: A431 cells overexpressing OATP1B1 or OATP2B1, and their mock transfected controls were generated and characterized previously. The cell lines were cultured in DMEM (Gibco, Thermofisher Scientific, Waltham, MA, USA), supplemented with 10% fetal bovine serum, 2 mM L-glutamine, 100 μg/mL streptomycin, and 100 units/mL penicillin at 37 °C and 5% CO2.
(§2) OATP uptake assay: Prior to the experiment, A431 cells (8 × 10^4/well) were seeded on 96-well plates in 200 μL cell culture medium. After 16–24 h, the cells were washed with 200 μL PBS, three times and pre-incubated with 20–200 μM HQNO2-L-Pro, or buffer without HQNO2-L-Pro for 5 min at 37 °C in 50 μL HBSS (Hank’s Balanced Salt Solution, pH 7.4; OATP1B1) or uptake buffer (pH 5.5; OATP2B1 [63]). The reaction was started by the addition of disulfopyrene (6,8-dihydroxy-1,3-pyrenedisulfonic acid disodium salt, Sigma, Darmstadt, Germany) at a final concentration of 10 μM (OATP1B1) or pyranine (8-hydroxypyrene-1,3-pyrenetrisulfonic acid trisodium salt, Sigma, Darmstadt, Germany) at a final concentration of 20 μM (OATP2B1), and the cells were further incubated at 37 °C for 10 min (OATP1B1) or 15 min (OATP2B1). The reaction was stopped by removing the supernatant after which the cells were washed three times with ice-cold PBS. Fluorescence (in 200 μL PBS) was determined using an Enspire plate reader (PerkinElmer, Waltham, MA, USA) with excitation/emission wavelengths of 460/510 nm. OATP-dependent transport was calculated by subtracting fluorescence measured in mock transfected cells. Transport activity was calculated based on the fluorescence signal in the absence (100%) of HQNO2-L-Pro. Experiments were repeated in at least three biological replicates.

OATP1B1 = biological target: T2, OATP1B1 (Homo sapiens, UniProt Q9Y6L6); experiment: OATP uptake assay, OATP1B1; assay type: cell-based; details: reference inhibitor; experiments not documented
T2 construct: expressed in transfected cells; host or cells: A431 epidermoid carcinoma cells
T2 sequence (Q9Y6L6 1-691): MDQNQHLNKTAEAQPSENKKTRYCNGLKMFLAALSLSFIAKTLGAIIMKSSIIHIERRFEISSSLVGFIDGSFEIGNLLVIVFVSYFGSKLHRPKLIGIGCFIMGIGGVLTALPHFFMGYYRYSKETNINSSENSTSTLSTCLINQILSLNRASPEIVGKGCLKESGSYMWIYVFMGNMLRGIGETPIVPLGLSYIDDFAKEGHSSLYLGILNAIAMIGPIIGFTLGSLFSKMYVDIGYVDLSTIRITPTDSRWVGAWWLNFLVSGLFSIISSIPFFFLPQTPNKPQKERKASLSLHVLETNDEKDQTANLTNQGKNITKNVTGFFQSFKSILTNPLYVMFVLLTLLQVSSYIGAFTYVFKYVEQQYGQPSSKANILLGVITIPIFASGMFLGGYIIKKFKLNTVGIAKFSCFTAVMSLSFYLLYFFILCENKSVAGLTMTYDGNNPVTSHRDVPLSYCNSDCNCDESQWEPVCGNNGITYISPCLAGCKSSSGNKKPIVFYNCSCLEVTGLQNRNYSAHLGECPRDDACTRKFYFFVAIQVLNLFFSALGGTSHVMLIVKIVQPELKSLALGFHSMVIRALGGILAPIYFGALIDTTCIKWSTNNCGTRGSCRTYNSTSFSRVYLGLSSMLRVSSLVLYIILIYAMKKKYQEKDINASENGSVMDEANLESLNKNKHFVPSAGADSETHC
Procedure: as §1, §2

MES-SA = experiment: In vitro cytotoxicity, MES-SA cells (fluorescent protein readout); assay type: cell-based, human; details: Homo sapiens, MES-SA; 144 h exposure
Description: (§3) Cell lines: all cell culture reagents were obtained from Sigma-Aldrich; plasticware was purchased from Sarstedt (Nümbrecht, Germany); Human colon Colo205 (chemo-sensitive, ATCC-CCL-222) and Colo320 (Pgp/MDR1-expressing, doxorubicin-resistant, ATCC-CCL-220.1) adenocarcinoma cell lines were purchased from LGC Promochem, Teddington, UK; MES-SA and MES-SA/Dx5 uterine sarcoma cell lines were obtained from ATCC, where they were characterized by DNA fingerprinting. The expression of the Pgp efflux pump of MES-SA/Dx5 was proven by Western blot analysis in our former report, and was also reported for the Colo320 cells. The MES-SA and MES-SA/Dx5 cells used in this study were previously engineered to express the fluorescent proteins mCherry and eGFP, respectively, by lentiviral transduction.
(§4) MES-SA cell lines were maintained in DMEM, supplemented with 10% fetal bovine serum, 5 mmol/L glutamine, and 50 units/mL penicillin and streptomycin. Cells were tested and resulted negative for mycoplasma contamination with the MycoAlert mycoplasma detection Kit (Lonza Group, Basel, Switzerland). One week prior to the cytotoxicity assays, Dx5 eGFP cells were selected in 500 nM doxorubicin for one passage to ensure the overexpression of P-glycoprotein.
(§5) Cytotoxicity assays: The tested compounds were dissolved in PBS buffer to prepare 5 mM stock solutions, which were diluted in complete culture medium.
(§6) In the case of the MES-SA and MES-SA/Dx5 cells, cell suspensions of the fluorescent cell lines were pre-mixed in a 1:1 ratio and seeded in 20 µL medium in a density of 2500 cells/well (1250 cells/well each) in a 384-well plate. After an overnight incubation, a serial dilution of the compounds was added to the plate in a final volume of 60 µL. The P-gp inhibitor tariquidar was added to the cells 15 min prior to the test compounds. After 144 h of incubation, plates were measured for the fluorescent intensity of mCherry (EX/EM: 585 nm/610 nm) and eGFP (EX/EM: 485 nm/510 nm). Cell seeding, aspiration of medium, and addition of drugs were performed by a Hamilton StarLet automated liquid handling robot.
(§7) Inhibition of the cell growth (expressed as IC50: inhibitory concentration that reduces by 50% the growth of the cells exposed to the tested compounds) was determined from the sigmoid curve where 100 − ((ODsample − ODmedium control)/(ODcell control − ODmedium control)) × 100 values were plotted against the logarithm of compound concentrations. Curves for the data obtained on Colo205 and Colo320 cells were fitted by GraphPad Prism software (2021, Graphpad Software, version 7.00, San Diego, CA, USA) using the sigmoidal dose–response model (comparing variable and fixed slopes). From the MES-SA cell data, the IC50 values were calculated by our custom program, written by J. Sessler in C#. The p values were calculated by Student’s t-test. The IC50 values were always obtained from at least three independent experiments.

MES-SA/Dx5 = experiment: In vitro cytotoxicity, MES-SA/Dx5 cells (fluorescent protein readout); assay type: cell-based, human; details: Homo sapiens, MES-SA/Dx5; 144 h exposure
Description: as §3, §4, §5, §6, §7

Colo320 [1] = experiment: In vitro cytotoxicity, Colo320 cells (MTT); assay type: cell-based, human; details: Homo sapiens, COLO 320; 72 h exposure
Description: as §3
(§8) The colon adenocarcinoma cells were cultured in RPMI 1640 medium supplemented with 10% heat-inactivated fetal bovine serum, 2 mM L-glutamine, 1 mM sodium pyruvate, and 100 mM HEPES. The cells were incubated at 37 °C, in a 5% CO2, 95% air atmosphere.
as §5
(§9) In the case of the Colo205 and Colo320 cells, two-fold serial dilutions were prepared in 100 μL medium. The semi-adherent colon adenocarcinoma cells were treated with Trypsin-Versene (EDTA) solution. They were adjusted to a density of 1 × 10^4 cells in 100 μL of RPMI 1640 medium and were added to each well, with the exception of the medium control wells. The final volume of the wells containing compounds and cells was 200 μL. The plates containing Colo205 and Colo320 cells were incubated at 37 °C for 72 h; at the end of the incubation period, 20 μL of 3-(4,5-dimethyl-2-thiazolyl)-2,5-diphenyl-2H-tetrazolium bromide (MTT) solution (from a stock solution of 5 mg/mL) was added to each well. After incubation at 37 °C for 4 h, 100 μL of sodium dodecyl sulfate (SDS) solution (10% in 0.01 M HCI) was added to each well, and the plates were further incubated at 37 °C overnight. Cell growth was determined by measuring the optical density (OD) at 540/630 nm with a Multiskan EX plate reader (Thermo Labsystems, Cheshire, WA, USA).
as §7

Colo205 [2] = experiment: In vitro cytotoxicity, Colo205 cells (MTT); assay type: cell-based, human; details: Homo sapiens, COLO 205; 72 h exposure
Description: as §3, §8, §5, §9
as §7, with “From the MES-SA cell data, the IC50 values were calculated by our custom program, written by J. Sessler in C#. The p values were calculated by Student’s t-test. The IC50 values were always obtained from at least three independent experiments.” left out

Colo320 [3] = system: Colo320; design: method as in PMID 32500882; details: cited from earlier work
[4] = design: method as in earlier work; details: pH 7.40, cited from earlier work
HSA site I (Trp-214) = biological target: T3, HSA site I (Trp-214) (Homo sapiens, UniProt P02768); design: method as in PMID 32500882; details: cited from earlier work
T3 construct: purchased Sigma-Aldrich (Darmstadt, Germany) A8763
T3 sequence (P02768 25-609): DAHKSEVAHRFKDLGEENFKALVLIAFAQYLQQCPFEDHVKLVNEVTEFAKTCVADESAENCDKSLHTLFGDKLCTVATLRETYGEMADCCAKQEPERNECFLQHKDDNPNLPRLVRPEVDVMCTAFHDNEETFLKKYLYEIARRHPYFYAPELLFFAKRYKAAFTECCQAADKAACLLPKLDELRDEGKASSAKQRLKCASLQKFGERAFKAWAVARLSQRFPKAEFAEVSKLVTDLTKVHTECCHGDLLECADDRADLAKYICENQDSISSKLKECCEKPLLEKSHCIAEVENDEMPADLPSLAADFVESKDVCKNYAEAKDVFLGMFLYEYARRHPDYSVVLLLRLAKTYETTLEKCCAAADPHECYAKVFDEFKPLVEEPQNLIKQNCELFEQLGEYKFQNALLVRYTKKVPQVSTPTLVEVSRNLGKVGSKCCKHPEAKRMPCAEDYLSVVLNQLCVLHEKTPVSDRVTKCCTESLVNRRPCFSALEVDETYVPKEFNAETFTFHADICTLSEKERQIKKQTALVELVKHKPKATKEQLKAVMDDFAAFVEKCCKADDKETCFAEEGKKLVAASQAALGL

Colo205 [5] = system: Colo205; design: method as in PMID 32500882; details: 72 h exposure; cited from earlier work
HSA site II = biological target: T4, HSA site II (Homo sapiens, UniProt P02768); design: method as in PMID 32500882; details: cited from earlier work
T4 construct: purchased Sigma-Aldrich (Darmstadt, Germany) A8763
T4 sequence (P02768 25-609): as above

Compound: O=C1OC(c2ccc(O)c(S(=O)(=O)O)c2)(c2ccc(O)c(S(=O)(=O)O)c2)c2c(Br)c(Br)c(Br)c(Br)c21 [bromosulfophthalein, reference compound]
- effect on OATP2B1 transport (OATP2B1): inhibited the transport
- effect on OATP1B1 transport (OATP1B1): inhibited the transport

Compound: COc1cccc2c1C(=O)c1c(O)c3c(c(O)c1C2=O)C[C@@](O)(C(=O)CO)C[C@@H]3O[C@H]1C[C@H](N)[C@H](O)[C@H](C)O1 [doxorubicin, reference compound]
- IC50 (MES-SA): 0.03 ± 0.01 µM
- IC50 (MES-SA/Dx5): 4 ± 1 µM
- IC50 (Colo320 [1]): 5.4 ± 0.9 µM
- IC50 (Colo205 [2]): 0.71 ± 0.02 µM

Compound: Cc1ccc(C(C)C)cc1.O=C(O)[C@@H]1CCC[NH+]1Cc1cc(Cl)c2ccc[n+]3c2c1[O][Ru-]3[Cl].[Cl-] [RuCym-HQCl-L-Pro]
- IC50 (Colo320 [3]; 72 h exposure): > 100 µM
- Selectivity ratio IC50 (Colo205)/IC50 (Colo320) (Colo320 [3]; calculated from IC50 values taken from ref 12): ≤ 0.68
- log D7.4 ([4]; 24 mM chloride): +0.09 ± 0.03
- log D7.4 ([4]; 100 mM chloride): +0.46 ± 0.03
- quenching constant logKQ' (HSA site I (Trp-214)): 5.7
- IC50 (Colo205 [5]): 68 ± 11 µM
- DG marker displacement constant logKDG' (HSA site II): 6.1
